Test results published in ChEMBL document CHEMBL3414495, “Multi-target tacrine-coumarin hybrids: cholinesterase and monoamine oxidase B inhibition properties against Alzheimer's disease” (Eur J Med Chem, 2015).

Biological target: T1, Amine oxidase [flavin-containing] A (Homo sapiens, UniProt P21397)
T1 sequence (P21397 whole entry): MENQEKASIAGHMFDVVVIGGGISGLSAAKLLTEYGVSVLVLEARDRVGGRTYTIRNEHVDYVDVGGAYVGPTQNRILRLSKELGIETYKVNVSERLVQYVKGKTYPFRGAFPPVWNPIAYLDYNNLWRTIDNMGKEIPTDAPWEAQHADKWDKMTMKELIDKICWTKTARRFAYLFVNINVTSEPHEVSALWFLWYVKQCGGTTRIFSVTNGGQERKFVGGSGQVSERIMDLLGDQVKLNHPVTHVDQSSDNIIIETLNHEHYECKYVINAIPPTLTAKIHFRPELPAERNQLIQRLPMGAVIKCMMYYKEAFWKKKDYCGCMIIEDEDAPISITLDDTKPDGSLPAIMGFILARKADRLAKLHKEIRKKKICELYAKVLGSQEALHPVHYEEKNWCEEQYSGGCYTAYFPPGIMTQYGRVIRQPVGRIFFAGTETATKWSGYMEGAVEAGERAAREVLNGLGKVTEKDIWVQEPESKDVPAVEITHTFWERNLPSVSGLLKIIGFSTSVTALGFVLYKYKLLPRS
Assay: Inhibition of human MAO-A using p-tyramine as substrate assessed as H2O2 production by amplex red assay
Conditions: not given; call rule not given here
Work on `O=c1ccc2ccc(OCCCCCN3CCN(CCNc4c5c(nc6ccccc46)CCCC5)CC3)cc2o1` yielded an IC50 of 9.18 µM.
With `Cc1c(C)c2ccc(OCCN3CCN(CCCNc4c5c(nc6ccccc46)CCCC5)CC3)cc2oc1=O` the IC50 was 15.1 µM.
`CCOc1cc(=O)oc2cc(OCCN3CCN(CCCNc4c5c(nc6ccccc46)CCCC5)CC3)ccc12` gave an IC50 of 78.6 µM.
Molecule `Cc1cc(=O)oc2cc(OCCN3CCN(CCCNc4c5c(nc6ccccc46)CCCC5)CC3)ccc12` has an IC50 of 66.7 µM.

Biological target: T2, Amine oxidase [flavin-containing] B (Homo sapiens, UniProt P27338)
T2 sequence (P27338 whole entry): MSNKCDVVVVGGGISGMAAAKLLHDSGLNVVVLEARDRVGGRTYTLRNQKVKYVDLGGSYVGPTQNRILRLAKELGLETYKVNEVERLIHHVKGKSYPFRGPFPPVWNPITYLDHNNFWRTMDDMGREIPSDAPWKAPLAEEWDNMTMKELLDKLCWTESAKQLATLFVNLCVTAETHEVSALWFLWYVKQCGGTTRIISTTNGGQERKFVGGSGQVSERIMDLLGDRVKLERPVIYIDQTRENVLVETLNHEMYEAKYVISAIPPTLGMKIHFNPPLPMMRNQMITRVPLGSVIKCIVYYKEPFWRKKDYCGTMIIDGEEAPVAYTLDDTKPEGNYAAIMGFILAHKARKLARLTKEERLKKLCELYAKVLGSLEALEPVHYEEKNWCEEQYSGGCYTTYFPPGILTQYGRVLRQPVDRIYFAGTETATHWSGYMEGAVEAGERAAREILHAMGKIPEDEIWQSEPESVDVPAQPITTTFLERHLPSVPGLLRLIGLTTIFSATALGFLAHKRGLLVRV
Assay: not given
Conditions: not given
`O=c1ccc2ccc(OCCN3CCN(CCNc4c5c(nc6ccccc46)CCCC5)CC3)cc2o1` showed an IC50 of 4.56 µM.
`O=c1ccc2ccc(OCCCCCN3CCN(CCNc4c5c(nc6ccccc46)CCCC5)CC3)cc2o1` showed an IC50 of 1.59 µM.
`CCOc1cc(=O)oc2cc(OCCN3CCN(CCCNc4c5c(nc6ccccc46)CCCC5)CC3)ccc12` showed an IC50 of 25.7 µM.
With `Cc1cc(=O)oc2cc(OCCN3CCN(CCCNc4c5c(nc6ccccc46)CCCC5)CC3)ccc12` the IC50 was 1.77 µM.

Biological target: T1, Amine oxidase [flavin-containing] A
Assay: Inhibition of human MAO-A using p-tyramine as substrate assessed as H2O2 production at 200 uM by amplex red assay
Conditions: not given
In the case of `O=c1ccc2ccc(OCCN3CCN(CCNc4c5c(nc6ccccc46)CCCC5)CC3)cc2o1`, the “inhibition (INH)” value is reported as “Not Active”.

Organism: Homo sapiens
Assay: Selectivity index, ratio of IC50 for human MAO-A to IC50 for human MAO-B
Conditions: not given
With `O=c1ccc2ccc(OCCN3CCN(CCNc4c5c(nc6ccccc46)CCCC5)CC3)cc2o1` the Ratio IC50 was > 43.9.
`O=c1ccc2ccc(OCCCCCN3CCN(CCNc4c5c(nc6ccccc46)CCCC5)CC3)cc2o1` gave a Ratio IC50 of 5.77.
`Cc1c(C)c2ccc(OCCN3CCN(CCCNc4c5c(nc6ccccc46)CCCC5)CC3)cc2oc1=O` gave a Ratio IC50 of 62.8.
For `CCOc1cc(=O)oc2cc(OCCN3CCN(CCCNc4c5c(nc6ccccc46)CCCC5)CC3)ccc12`, the Ratio IC50 was 3.05.
In the case of `Cc1cc(=O)oc2cc(OCCN3CCN(CCCNc4c5c(nc6ccccc46)CCCC5)CC3)ccc12`, the Ratio IC50 is reported as 37.7.

Biological target: Acetylcholinesterase (Homo sapiens, UniProt P22303)
Sequence (P22303 whole entry): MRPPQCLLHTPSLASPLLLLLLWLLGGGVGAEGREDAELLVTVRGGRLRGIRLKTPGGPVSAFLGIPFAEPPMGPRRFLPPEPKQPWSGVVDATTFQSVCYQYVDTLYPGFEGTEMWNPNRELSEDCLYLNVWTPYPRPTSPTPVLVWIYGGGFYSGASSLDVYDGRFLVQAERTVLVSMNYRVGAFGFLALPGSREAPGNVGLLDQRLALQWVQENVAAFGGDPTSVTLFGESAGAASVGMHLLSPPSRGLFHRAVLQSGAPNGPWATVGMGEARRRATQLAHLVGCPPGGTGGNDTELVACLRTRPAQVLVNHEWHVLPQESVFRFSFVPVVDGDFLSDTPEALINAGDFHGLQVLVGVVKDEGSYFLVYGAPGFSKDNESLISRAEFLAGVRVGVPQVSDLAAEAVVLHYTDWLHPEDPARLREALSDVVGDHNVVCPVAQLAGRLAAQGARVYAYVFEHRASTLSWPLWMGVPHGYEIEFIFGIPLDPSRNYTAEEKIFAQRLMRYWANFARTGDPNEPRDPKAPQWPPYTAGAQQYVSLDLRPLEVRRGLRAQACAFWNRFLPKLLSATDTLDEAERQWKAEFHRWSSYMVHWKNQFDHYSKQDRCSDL
Assay: Inhibition of human AChE using acetylthiocholine iodide as substrate incubated for 6 mins prior to substrate addition measured after 60 to 180 secs by Ellman method
Conditions: not given
With `Cc1c(C)c2ccc(OCCN3CCN(CCCNc4c5c(nc6ccccc46)CCCC5)CC3)cc2oc1=O` the IC50 was 16.1 nM.

Biological target: Cholinesterase (Homo sapiens, UniProt P06276)
Sequence (P06276 whole entry): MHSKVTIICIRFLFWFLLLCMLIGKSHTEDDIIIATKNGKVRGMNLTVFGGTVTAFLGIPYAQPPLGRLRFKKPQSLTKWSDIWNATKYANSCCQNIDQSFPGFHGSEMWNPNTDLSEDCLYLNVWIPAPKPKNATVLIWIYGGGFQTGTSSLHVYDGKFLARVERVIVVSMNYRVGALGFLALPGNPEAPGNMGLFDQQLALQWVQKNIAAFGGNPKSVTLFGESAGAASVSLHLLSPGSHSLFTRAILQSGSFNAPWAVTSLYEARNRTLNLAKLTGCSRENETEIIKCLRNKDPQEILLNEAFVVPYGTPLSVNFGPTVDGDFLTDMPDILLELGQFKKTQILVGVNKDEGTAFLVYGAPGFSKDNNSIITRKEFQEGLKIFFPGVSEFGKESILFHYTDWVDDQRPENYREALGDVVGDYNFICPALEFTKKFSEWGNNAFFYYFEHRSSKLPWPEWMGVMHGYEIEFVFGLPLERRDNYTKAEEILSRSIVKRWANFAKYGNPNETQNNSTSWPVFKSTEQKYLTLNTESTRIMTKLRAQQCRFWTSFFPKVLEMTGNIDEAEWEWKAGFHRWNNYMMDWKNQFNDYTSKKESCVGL
Assay: Inhibition of human BuChE using S-butyrylthiocholine iodide as substrate incubated for 6 mins prior to substrate addition measured after 60 to 180 secs by Ellman method
Conditions: not given
With `Cc1c(C)c2ccc(OCCN3CCN(CCCNc4c5c(nc6ccccc46)CCCC5)CC3)cc2oc1=O` the IC50 was 113 nM.

Biological target: T3, Acetylcholinesterase (Electrophorus electricus, UniProt O42275)
T3 sequence (O42275 whole entry): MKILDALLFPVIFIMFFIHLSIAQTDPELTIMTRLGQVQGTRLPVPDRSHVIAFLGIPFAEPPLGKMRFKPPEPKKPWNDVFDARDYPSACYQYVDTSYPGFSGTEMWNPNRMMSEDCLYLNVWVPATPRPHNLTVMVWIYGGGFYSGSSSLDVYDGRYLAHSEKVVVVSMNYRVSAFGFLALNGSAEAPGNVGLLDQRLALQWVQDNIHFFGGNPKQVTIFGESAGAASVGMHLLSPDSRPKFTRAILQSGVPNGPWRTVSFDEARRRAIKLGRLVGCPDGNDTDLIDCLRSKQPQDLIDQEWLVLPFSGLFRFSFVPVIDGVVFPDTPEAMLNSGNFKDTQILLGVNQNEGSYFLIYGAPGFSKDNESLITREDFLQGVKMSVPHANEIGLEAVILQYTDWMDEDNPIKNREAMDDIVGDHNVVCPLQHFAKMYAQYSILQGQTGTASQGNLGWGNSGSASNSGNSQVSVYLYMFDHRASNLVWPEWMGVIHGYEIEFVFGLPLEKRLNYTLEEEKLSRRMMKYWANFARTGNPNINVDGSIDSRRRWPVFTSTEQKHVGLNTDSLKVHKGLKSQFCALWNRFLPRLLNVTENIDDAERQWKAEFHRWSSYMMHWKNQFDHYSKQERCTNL
Assay: Mixed-type inhibition of electric eel AChE by Lineweaver-Burk plot analysis
Conditions: not given
In the case of `Cc1c(C)c2ccc(OCCN3CCN(CCCNc4c5c(nc6ccccc46)CCCC5)CC3)cc2oc1=O`, the Ki is reported as 34.4 nM.

Biological target: T2, Amine oxidase [flavin-containing] B
Assay: Reversible inhibition of human MAO-B at 100 times IC50 incubated for 30 mins followed by 100 fold dilution to IC50 by dilution assay relative to control
Conditions: 0.5 h
For `Cc1c(C)c2ccc(OCCN3CCN(CCCNc4c5c(nc6ccccc46)CCCC5)CC3)cc2oc1=O`, the “inhibition (INH)” value was 79%.

Biological target: T2, Amine oxidase [flavin-containing] B
Assay: Competitive inhibition of human MAO-B using p-tyramine as substrate at 0.5 to 0.125 uM by double reciprocal Lineweaver-Burk plot analysis
Conditions: not given
For `Cc1c(C)c2ccc(OCCN3CCN(CCCNc4c5c(nc6ccccc46)CCCC5)CC3)cc2oc1=O`, the “inhibition (INH)” value was “Active”.

Tested on: not listed separately
Assay: Cytotoxicity against human SH-SY5Y cells assessed as cell viability at 13 uM after 24 hrs by MTT assay
Format: cell-based
Conditions: read-out: Activity
`Cc1c(C)c2ccc(OCCN3CCN(CCCNc4c5c(nc6ccccc46)CCCC5)CC3)cc2oc1=O` gave a viability at 24 h, 13 µM of 77.1%.

Tested on: not listed separately
Assay: Cytotoxicity against human SH-SY5Y cells assessed as cell viability at […] after 24 hrs by MTT assay
Format: cell-based
Conditions: read-out: Activity
In the case of `Cc1c(C)c2ccc(OCCN3CCN(CCCNc4c5c(nc6ccccc46)CCCC5)CC3)cc2oc1=O`, the viability at 24 h, […] is reported as 85.7%.

Tested on: not listed separately
Assay: Cytotoxicity against human SH-SY5Y cells assessed as cell viability at 3.25 uM after 24 hrs by MTT assay
Format: cell-based
Conditions: read-out: Activity
For `Cc1c(C)c2ccc(OCCN3CCN(CCCNc4c5c(nc6ccccc46)CCCC5)CC3)cc2oc1=O`, the viability at 24 h, 3.25 µM was 91.1%.

Tested on: not listed separately
Assay: Cytotoxicity against human SH-SY5Y cells assessed as cell viability at 1.63 uM after 24 hrs by MTT assay
Format: cell-based
Conditions: read-out: Activity
`Cc1c(C)c2ccc(OCCN3CCN(CCCNc4c5c(nc6ccccc46)CCCC5)CC3)cc2oc1=O` showed a viability at 24 h, 1.63 µM of 96.6%.

Tested on: not listed separately
Assay: Cytotoxicity against human SH-SY5Y cells assessed as cell viability at 0.81 uM after 24 hrs by MTT assay
Format: cell-based
Conditions: read-out: Activity
For `Cc1c(C)c2ccc(OCCN3CCN(CCCNc4c5c(nc6ccccc46)CCCC5)CC3)cc2oc1=O`, the viability at 24 h, 0.81 µM was 101%.

Biological target: T3, Acetylcholinesterase
Assay: not given
Conditions: not given
In the case of `O=c1ccc2ccc(OCCN3CCN(CCNc4c5c(nc6ccccc46)CCCC5)CC3)cc2o1`, the IC50 is reported as 69.4 nM.
Work on `O=c1ccc2ccc(OCCCCCN3CCN(CCNc4c5c(nc6ccccc46)CCCC5)CC3)cc2o1` yielded an IC50 of 139 nM.
Molecule `Cc1c(C)c2ccc(OCCN3CCN(CCCNc4c5c(nc6ccccc46)CCCC5)CC3)cc2oc1=O` has an IC50 of 33.6 nM.
`CCOc1cc(=O)oc2cc(OCCN3CCN(CCCNc4c5c(nc6ccccc46)CCCC5)CC3)ccc12` showed an IC50 of 51.1 nM.
Molecule `Cc1cc(=O)oc2cc(OCCN3CCN(CCCNc4c5c(nc6ccccc46)CCCC5)CC3)ccc12` has an IC50 of 39.1 nM.

Biological target: Cholinesterase (Equus caballus, UniProt P81908)
Sequence (P81908 whole entry): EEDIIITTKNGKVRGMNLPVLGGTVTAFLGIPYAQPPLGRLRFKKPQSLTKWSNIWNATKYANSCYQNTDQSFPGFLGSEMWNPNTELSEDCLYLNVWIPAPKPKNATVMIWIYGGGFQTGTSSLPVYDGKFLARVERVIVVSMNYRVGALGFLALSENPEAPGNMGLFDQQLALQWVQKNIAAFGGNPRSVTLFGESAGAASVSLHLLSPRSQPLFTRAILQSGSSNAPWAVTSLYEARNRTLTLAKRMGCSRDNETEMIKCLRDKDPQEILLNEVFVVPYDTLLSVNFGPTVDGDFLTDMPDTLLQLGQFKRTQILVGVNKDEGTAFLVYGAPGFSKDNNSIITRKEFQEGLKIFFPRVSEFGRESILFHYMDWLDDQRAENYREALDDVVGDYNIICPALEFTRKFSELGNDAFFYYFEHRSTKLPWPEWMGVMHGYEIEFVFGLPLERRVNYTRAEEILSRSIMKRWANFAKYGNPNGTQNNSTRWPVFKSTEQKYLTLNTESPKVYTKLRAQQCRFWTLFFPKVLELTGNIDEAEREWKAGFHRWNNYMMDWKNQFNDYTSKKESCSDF
Assay: not given
Conditions: not given
`O=c1ccc2ccc(OCCN3CCN(CCNc4c5c(nc6ccccc46)CCCC5)CC3)cc2o1` gave an IC50 of 43.4 nM.
Molecule `O=c1ccc2ccc(OCCCCCN3CCN(CCNc4c5c(nc6ccccc46)CCCC5)CC3)cc2o1` has an IC50 of 32.2 nM.
`CCOc1cc(=O)oc2cc(OCCN3CCN(CCCNc4c5c(nc6ccccc46)CCCC5)CC3)ccc12` gave an IC50 of 86.6 nM.
Molecule `Cc1cc(=O)oc2cc(OCCN3CCN(CCCNc4c5c(nc6ccccc46)CCCC5)CC3)ccc12` has an IC50 of 50.8 nM.

Tested on: not listed separately
Assay: in vitro
Conditions: PAMPA
Description: Permeability of the compound after 16 hrs by PAMPA
Work on `O=c1ccc2ccc(OCCN3CCN(CCNc4c5c(nc6ccccc46)CCCC5)CC3)cc2o1` yielded a Papp at 16 h of 2.13 ×10⁻⁶ cm/s.
Work on `O=c1ccc2ccc(OCCCCCN3CCN(CCNc4c5c(nc6ccccc46)CCCC5)CC3)cc2o1` yielded a Papp at 16 h of 6.5 ×10⁻⁶ cm/s.
`Cc1c(C)c2ccc(OCCN3CCN(CCCNc4c5c(nc6ccccc46)CCCC5)CC3)cc2oc1=O` showed a Papp at 16 h of 4.75 ×10⁻⁶ cm/s.
Molecule `CCOc1cc(=O)oc2cc(OCCN3CCN(CCCNc4c5c(nc6ccccc46)CCCC5)CC3)ccc12` has a Papp at 16 h of 2.74 ×10⁻⁶ cm/s.
With `Cc1cc(=O)oc2cc(OCCN3CCN(CCCNc4c5c(nc6ccccc46)CCCC5)CC3)ccc12` the Papp at 16 h was 1.9 ×10⁻⁶ cm/s.
